The values below come from patent EP0889884B1, “1,2,4-TRIAZINE DERIVATIVES FOR THE INHIBITION OF PROTEIN GLYCOSYLATION” (ALTEON Inc., priority 1996, dated 1997).

Counter-ions that a name gives are not always drawn.

Test system in the first test: not listed separately
The experiment in a line: Inhibition of cross-linking of N-acetyl glycyl-lysine methyl ester in the presence of ribose (fluorescence). Format: biochemical. The following applies: 0.5 M sodium phosphate buffer pH 7.4, 37° C, 16-24 hours, fluorescence 350/400 nm. As for the experimental part: The following method was used to evaluate the ability of the compounds of the present invention to inhibit the cross-linking of N-acetyl glycyl-lysine methyl ester in the presence of ribose. […] Reaction mixtures are prepared as follows: [table] […] At the end of the incubation period reaction mixture is diluted with 3 ml distilled water and the fluorescence is read using an excitation wavelength of 350 nm and emission wavelength of 400 nm.
For `CCOC(=O)C(C)c1nnc(N)n(N)c1=O` (centres unmarked) [3,4-diamino-6-(1'-ethoxycarbonylethyl)-1,2,4-triazine-5(4H)-one hydrochloride], the IC50 (as a rule, the midpoint of a concentration-inhibition curve) worked out at 1650 µM.

Regarding `COc1ccc(C=Cc2nnc(N)n(N)c2=O)cc1OC` [3,4-diamino-6-(3,4-dimethoxystyryl)-1,2,4-triazine-5(4H)-one hydrochloride], the IC50 is 350 µM.

Take `Nc1nnc(CCc2ccccc2)c(=O)n1N` [3,4-diamino-6-phenethyl-1,2,4-triazine-5(4H)-one hydrochloride]: the half-inhibitory concentration (IC50) is 2700 µM.

As to `Cc1nnc(N)n(N)c1=O` [3,4-diamino-6-methyl-1,2,4-triazine-5(4H)-one], the IC50 was determined as 1230 µM.

Regarding `Cc1nnc(NN)n(N)c1=O` [4-amino-3-hydrazino-6-methyl-1,2,4-triazin-5(4H)-one hydrochloride], the IC50 is under 3000 µM.

With `CC(C)(CO)c1nnc(N)n(N)c1=O` [3,4-diamino-6-(1',1'-dimethyl-2'-hydroxyethyl)-1,2,4-triazine-5(4H)-one], the half-inhibitory concentration (IC50) worked out at 970 µM.

Regarding `CCc1nnc(N)n(N)c1=O` [3,4-diamino-6-ethyl-1,2,4-triazine-5(4H)-one hydrochloride], the IC50 came out at 2000 µM.

Consider `Nc1nnc(Cc2ccccc2)c(=O)n1N` [3,4-diamino-6-benzyl-1,2,4-triazine-5(4H)-one hydrochloride], for which the half-inhibitory concentration (IC50) was 1200 µM.

Take `NNC(=O)CCc1nnc(N)n(N)c1=O` [3-[6'-(3',4'-diamino-5'(4H)-one-1',2',4'-triazinyl)]-propionic hydrazide hydrochloride]: the half-maximal inhibitory concentration (IC50) is 1500 µM.

As to `NNc1nncc(=O)n1N` [4-amino-3-hydrazino-1,2,4-triazin-5(4H)-one hydrochloride], the IC50 was over 10000 µM.

Regarding “2-methyl-[6'-(3',4'-diamino-5(4H)-one-1,2,4-triazinyl)]hydrazide”, the 50% inhibitory concentration (IC50) worked out at 830 µM.

`CCCc1nnc(N)n(N)c1=O` [3,4-diamino-6-propyl-1,2,4-triazine-5(4H)-one hydrochloride]: the concentration for half-maximal inhibition (IC50) is 1300 µM.

For the compound `CCC(C)c1nnc(N)n(N)c1=O` (centres unmarked) [3,4-diamino-6-(1-methylpropyl)-1,2,4-triazine-5(4H)-one], the half-inhibitory concentration (IC50) was found to be 1400 µM.

Turning to `Nc1nnc(Cc2ccc(O)cc2)c(=O)n1N` [3,4-diamino-6-(4-hydroxybenzyl)-1,2,4-triazine-5(4H)-one hydrochloride], the half-inhibitory concentration (IC50) turned out to be 4400 µM.

As for `Nc1nnc(Cc2ccccc2[N+](=O)[O-])c(=O)n1N` [3,4-diamino-6-(2'-nitrobenzyl)-1,2,4-triazine-5(4H)-one hydrochloride], the IC50 was found to be 900 µM.

On to `NNC(=O)c1nnc(N)n(N)c1=O` [6-(3',4'-diamino-5(4H)-one-1,2,4-triazinyl)hydrazide], for which the IC50 came to 730 µM.

With `CCOC(=O)c1nnc(N)n(N)c1=O` [3,4-diamino-6-carboxyethyl-1,2,4-triazine-5(4H)-one hydrochloride], the concentration for half-maximal inhibition (IC50) is 720 µM.

For `Nc1nnc(C2CC2)c(=O)n1N` [3,4-diamino-6-cyclopropyl-1,2,4-triazine-5(4H)-one], the half-inhibitory concentration (IC50) was 2000 µM.

Take `CCOC(=O)CCc1nnc(N)n(N)c1=O` [3,4-diamino-6-(2'-ethoxycarbonylethyl)-1,2,4-triazine-5(4H)-one hydrochloride]: the IC50 is 840 µM.

For the compound `COc1cccc(C(=O)Cc2nnc(N)n(N)c2=O)c1` [3,4-diamino-6-(3'-methoxyphenylcarbonylmethylene)-1,2,4-triazine-5(4H)-one hydrochloride], the IC50 is over 10000 µM.

On to `CC(C)Cc1nnc(N)n(N)c1=O` [3,4-diamino-6-(2-methypropyl)-1,2,4-triazine-5(4H)-one], for which the IC50 was found to be 1160 µM.

Consider `NNc1nnc(Cc2ccc(O)cc2)c(=O)n1N` [4-amino-3-hydrazino-6-(4'-hydroxybenzyl)-1,2,4-triazin-5(4H)-one hydrochloride], for which the IC50 is over 1000 µM.

As for `CC(C)c1nnc(N)n(N)c1=O` [3,4-diamino-6-isopropyl-1,2,4-triazine-5(4H)-one hydrochloride], the IC50 was 1050 µM.

Consider `CCCCCCC(C(=O)OCC)c1nnc(N)n(N)c1=O` (centres unmarked) [3,4-diamino-6-(1'-ethoxycarbonylheptyl)-1,2,4-triazine-5(4H)-one hydrochloride], for which the IC50 amounted to 480 µM.

With `Nc1nnc(CCC(=O)O)c(=O)n1N` [3,4-diamino-6-(2'-carboxyethyl)-1,2,4-triazine-5(4H)-one], the IC50 turned out to be 1970 µM.

The test system of a further test is fixed protein (gelatin, i.e., collagen) surface. The experiment in a line: Surface browning experiment on gelatin/paper disks in glucose-6-phosphate. The following applies: 100 mM glucose-6-phosphate, one week at 50°C; Peridex® at a final concentration of 0.04% chlorhexidine.
Protocol: To further study the ability of inhibitors of nonenzymatic browning to prevent the discoloration of protein on a surface, such as that which occurs on the tooth surface, the following surface browning experiment is performed. As a substitute for a pellicle-covered tooth surface, unexposed and developed photographic paper is used to provide a fixed protein (gelatin, i.e., collagen) surface on a paper backing. Five millimeter circles are punched and immersed for one week at 50°C in a solution of 100 mM glucose-6-phosphate in a 0.5 M phosphate buffer, pH 7.4, containing 3 mM sodium azide. […] In addition to the glucose-6-phosphate, chlorhexidine and/or a compound of Formula I are included. After incubation, the gelatin/paper disks are rinsed with water, observed for brown color, and photographed.
As to `[H]/N=C(\N/C(=N/[H])NCCCCCCNC(=N)NC(=N)Nc1ccc(Cl)cc1)Nc1ccc(Cl)cc1` [chlorhexidine], the “brown color of gelatin/paper disks” value was “significant browning”.
